Here are results for 15 molecules from patent publication US10611740B2, “Aryl dihydro-2H-benzo[b][1,4]oxazine sulfonamide and related compounds for use as agonists of RORγ and the treatment of disease” (Lycera Corporation, priority 2015, dated 2020).

Bounds are passed on as bounds.

The target of one assay is T1, RORγ-LBD (Homo sapiens, UniProt P51449).
T1 construct: made in house; host or cells: SF9 cells (baculovirus)
T1 sequence (P51449 269-508 limits assumed): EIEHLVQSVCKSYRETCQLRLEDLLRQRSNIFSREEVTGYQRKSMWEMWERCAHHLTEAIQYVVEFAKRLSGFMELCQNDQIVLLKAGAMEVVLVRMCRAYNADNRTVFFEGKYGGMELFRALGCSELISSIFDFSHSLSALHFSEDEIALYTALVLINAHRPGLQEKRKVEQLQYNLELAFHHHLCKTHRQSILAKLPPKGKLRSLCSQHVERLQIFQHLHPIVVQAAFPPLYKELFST
Briefly: RORγ-Ligand Binding Domain (LBD) TR-FRET Assay.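 On TR-FRET Assay Max Response: 665/615 nm ratio relative to signal without ursolic acid or compound set at 100.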 It counts as biochemical. Summed up:
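Compounds, diluted in DMSO and then in assay buffer (1% DMSO final), were combined with His-tagged RORγ-LBD lysate at roughly 3 nM final and a 200 nM biotinylated SRC1 LXXLL peptide. Ursolic acid was included at 2 μM final. Coactivator recruitment was detected by TR-FRET.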
(In TR-FRET formats the signal depends on donor and acceptor labels being close together.)

In another assay the target is T2, Gal4-RORγ-LBD (Homo sapiens, UniProt P51449).
T2 construct: expressed in transfected cells; host or cells: HEK-293 cells (pcDNA3.1neo plasmid)
T2 sequence (P51449 269-508 limits assumed): T1 sequence (P51449 269-508 limits assumed)
Briefly: Gal4-RORγ Luciferase Reporter Assay in HEK-293T Cells. Type of assay: cell-based. To be noted: HEK-293 cells, luciferase reporter, with 2 μM ursolic acid. Summed up: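 HEK-293 cells were transiently co-transfected with Gal4-RORγ-LBD and pGL4.31 Gal4-luciferase, with ursolic acid added at 2 μM final. Compounds were incubated overnight at 37° C. in 0.2% DMSO and luminescence read with One-Glo. Max Response is the upper plateau of a 4-parameter logistic fit, with signal lacking ursolic acid or compound set to 100.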

With `O=C(O)CC[C@H]1CN(S(=O)(=O)c2cccc(C(F)(F)F)c2)c2cc(-c3ccccc3O)ccc2O1` [Compound 2AW, (S)-3-(6-(2-hydroxyphenyl)-4-((3-(trifluoromethyl)phenyl)-sulfonyl)-3,4-dihydro-2H-benzo[b][1,4]oxazin-2-yl)propanoic acid], at RORγ-LBD, the EC50 was below 500 nM and the “TR-FRET Assay Max Response” value is reported as “**** (The symbol “****” indicates a value greater than 200)”. In addition, on Gal4-RORγ-LBD, the EC50 was 500 to 5000 nM and the “Gal4-RORγ Assay Max Response” value is on record as “** (The symbol “**” indicates a value in the range of greater than 90 to 150)”.
With `Cc1cccc(-c2ccc3c(c2)N(S(=O)(=O)c2cccc(C(F)(F)F)c2)C[C@H](CCC(=O)O)O3)c1F` [Compound 2AY, (S)-3-(6-(2-fluoro-3-methyl-phenyl)-4-((3-(trifluoro-methyl)phenyl)sulfonyl)-3,4-dihydro-2H-benzo[b][1,4]-oxazin-2-yl)propanoic acid], on RORγ-LBD, the EC50 is below 500 nM and the “TR-FRET Assay Max Response” value was “**** (The symbol “****” indicates a value greater than 200)”. At Gal4-RORγ-LBD, the concentration giving a half-maximal response (EC50) was 500 to 5000 nM and the “Gal4-RORγ Assay Max Response” value is given as “**** (The symbol “****” indicates a value greater than 200)”.
`Cc1nnc(-c2ccc3c(c2)N(S(=O)(=O)c2cccc(C(F)(F)F)c2)C[C@H](CCC(=O)O)O3)s1` [Compound 2AZ, (S)-3-(6-(5-methyl-1,3,4-thiadiazol-2-yl)-4-((3-(trifluoromethyl)phenyl)-sulfonyl)-3,4-dihydro-2H-benzo[b][1,4]oxazin-2-yl)propanoic acid] showed an EC50 on RORγ-LBD above 10000 nM. On Gal4-RORγ-LBD, the concentration for a half-maximal effect (EC50) is above 10000 nM and the “Gal4-RORγ Assay Max Response” value is on record as “** (The symbol “**” indicates a value in the range of greater than 90 to 150)”.
`Cc1ccc(F)cc1-c1ccc2c(c1)N(S(=O)(=O)c1cccc(C(F)(F)F)c1)C[C@H](CCC(=O)O)O2` [Compound 2BA, (S)-3-(6-(5-fluoro-2-methylphenyl)-4-((3-(trifluoromethyl)phenyl)sulfonyl)-3,4-dihydro-2H-benzo[b][1,4]oxazin-2-yl)propanoic acid]: on RORγ-LBD, the concentration for a half-maximal effect (EC50) was below 500 nM and the “TR-FRET Assay Max Response” value is “**** (The symbol “****” indicates a value greater than 200)”. On Gal4-RORγ-LBD, the concentration giving a half-maximal response (EC50) was below 500 nM and the “Gal4-RORγ Assay Max Response” value was “** (The symbol “**” indicates a value in the range of greater than 90 to 150)”.
For `COc1c(F)cc(F)cc1-c1ccc2c(c1)N(S(=O)(=O)c1cccc(C(F)(F)F)c1)C[C@H](CCC(=O)O)O2` [Compound 2BC, (S)-3-(6-(3,5-difluoro-2-methoxyphenyl)-4-((3-(trifluoromethyl)phenyl)-sulfonyl)-3,4-dihydro-2H-benzo[b][1,4]oxazin-2-yl)propanoic acid], on RORγ-LBD, the EC50 was below 500 nM and the “TR-FRET Assay Max Response” value is on record as “**** (The symbol “****” indicates a value greater than 200)”. Moreover, on Gal4-RORγ-LBD, the 50% effective concentration (EC50) was below 500 nM and the “Gal4-RORγ Assay Max Response” value was “*** (The symbol “***” indicates a value in the range of greater than 150 to 200)”.
As for `CCc1ccccc1-c1ccc2c(c1)N(S(=O)(=O)c1cccc(C(F)(F)F)c1)C[C@H](CCC(=O)O)O2` [Compound 2BD, (S)-3-(6-(2-ethylphenyl)-4-((3-(trifluoromethyl)phenyl)sulfonyl)-3,4-dihydro-2H-benzo[b][1,4]oxazin-2-yl)propanoic acid], on RORγ-LBD, the EC50 was below 500 nM and the “TR-FRET Assay Max Response” value was “**** (The symbol “****” indicates a value greater than 200)”. In addition, at Gal4-RORγ-LBD, the EC50 is below 500 nM and the “Gal4-RORγ Assay Max Response” value was “** (The symbol “**” indicates a value in the range of greater than 90 to 150)”.
As for `O=C(O)CC[C@H]1CN(S(=O)(=O)c2cccc(C(F)(F)F)c2)c2cc(-c3cccnc3Cl)ccc2O1` [Compound 2BE, (S)-3-(6-(2-chloropyridin-3-yl)-4-((3-(trifluoromethyl)phenyl)-sulfonyl)-3,4-dihydro-2H-benzo[b][1,4]oxazin-2-yl)propanoic acid], on RORγ-LBD, the half-maximal effective concentration (EC50) was below 500 nM and the “TR-FRET Assay Max Response” value was “**** (The symbol “****” indicates a value greater than 200)”. Further, on Gal4-RORγ-LBD, the EC50 was in the range of 500 to 5000 nM and the “Gal4-RORγ Assay Max Response” value is reported as “** (The symbol “**” indicates a value in the range of greater than 90 to 150)”.
The like results for `COc1ncccc1-c1ccc2c(c1)N(S(=O)(=O)c1cccc(C(F)(F)F)c1)C[C@H](CCC(=O)O)O2` [Compound 2BG, (S)-3-(6-(2-methoxypyridin-3-yl)-4-((3-(trifluoromethyl)-phenyl)sulfonyl)-3,4-dihydro-2H-benzo[b][1,4]oxazin-2-yl)propanoic acid] were, in that order, below 500 nM, “*** (The symbol “***” indicates a value in the range of greater than 150 to 200)”, 500 to 5000 nM and “** (The symbol “**” indicates a value in the range of greater than 90 to 150)”.
`CC(C)Cn1cc(-c2ccc3c(c2)N(S(=O)(=O)c2cccc(C(F)(F)F)c2)C[C@H](CCC(=O)O)O3)cn1` [Compound 2BH, (S)-3-(6-(1-isobutyl-1H-pyrazol-4-yl)-4-((3-(trifluoromethyl)-phenyl)sulfonyl)-3,4-dihydro-2H-benzo[b][1,4]oxazin-2-yl)propanoic acid]: the values for the EC50 at RORγ-LBD and on Gal4-RORγ-LBD were 500 to 5000 nM and above 10000 nM, respectively. The “TR-FRET Assay Max Response” value on RORγ-LBD is “** (The symbol “**” indicates a value in the range of greater than 90 to 150)”.
Take `CS(=O)(=O)c1ccccc1-c1ccc2c(c1)N(S(=O)(=O)c1cccc(C(F)(F)F)c1)C[C@H](CCC(=O)O)O2` [Compound 2BI, (S)-3-(6-(2-(methylsulfonyl)-phenyl)-4-((3-(trifluoromethyl)-phenyl)sulfonyl)-3,4-dihydro-2H-benzo[b][1,4]oxazin-2-yl)propanoic acid]: on RORγ-LBD, the half-maximal effective concentration (EC50) lay within 500 to 5000 nM and the “TR-FRET Assay Max Response” value is “*** (The symbol “***” indicates a value in the range of greater than 150 to 200)”. In addition, on Gal4-RORγ-LBD, the EC50 fell in the range of 500 to 5000 nM and the “Gal4-RORγ Assay Max Response” value was “** (The symbol “**” indicates a value in the range of greater than 90 to 150)”.
Consider `COc1cccc(C#N)c1-c1ccc2c(c1)N(S(=O)(=O)c1cccc(C(F)(F)F)c1)C[C@H](CCC(=O)O)O2` [Compound 2BJ, (S)-3-(6-(2-cyano-6-methoxy-phenyl)-4-((3-(trifluoromethyl)-phenyl)sulfonyl)-3,4-dihydro-2H-benzo[b][1,4]oxazin-2-yl)propanoic acid], for which the EC50 on RORγ-LBD and on Gal4-RORγ-LBD was above 10000 nM in each case. For the same molecule, on Gal4-RORγ-LBD, the “Gal4-RORγ Assay Max Response” value is given as “** (The symbol “**” indicates a value in the range of greater than 90 to 150)”.
As to `Cc1ccc(Cl)c(-c2ccc3c(c2)N(S(=O)(=O)c2cccc(C(F)(F)F)c2)C[C@H](CCC(=O)O)O3)c1` [Compound 2BK, (S)-3-(6-(2-chloro-5-methyl-phenyl)-4-((3-(trifluoromethyl)-phenyl)sulfonyl)-3,4-dihydro-2H-benzo[b][1,4]oxazin-2-yl)propanoic acid], at RORγ-LBD, the EC50 was below 500 nM and the “TR-FRET Assay Max Response” value is on record as “*** (The symbol “***” indicates a value in the range of greater than 150 to 200)”. Besides, at Gal4-RORγ-LBD, the EC50 is below 500 nM and the “Gal4-RORγ Assay Max Response” value is “** (The symbol “**” indicates a value in the range of greater than 90 to 150)”.
In the case of `Cc1ccc(F)c(-c2ccc3c(c2)N(S(=O)(=O)c2cccc(C(F)(F)F)c2)C[C@H](CCC(=O)O)O3)c1` [Compound 2BL, (S)-3-(6-(2-fluoro-5-methyl-phenyl)-4-((3-(trifluoromethyl)-phenyl)sulfonyl)-3,4-dihydro-2H-benzo[b][1,4]oxazin-2-yl)propanoic acid], at RORγ-LBD, the EC50 was below 500 nM and the “TR-FRET Assay Max Response” value is “*** (The symbol “***” indicates a value in the range of greater than 150 to 200)”. Besides, on Gal4-RORγ-LBD, the 50% effective concentration (EC50) was below 500 nM and the “Gal4-RORγ Assay Max Response” value is given as “** (The symbol “**” indicates a value in the range of greater than 90 to 150)”.
For `O=C(O)CC[C@H]1CN(S(=O)(=O)c2cccc(C(F)(F)F)c2)c2cc(-c3ccccc3C(F)(F)F)ccc2O1` [Compound 2BM, (S)-3-(6-(2-(trifluoromethyl)-phenyl)-4-((3-(trifluoromethyl)-phenyl)sulfonyl)-3,4-dihydro-2H-benzo[b][1,4]oxazin-2-yl)propanoic acid], on RORγ-LBD, the 50% effective concentration (EC50) is below 500 nM and the “TR-FRET Assay Max Response” value was “*** (The symbol “***” indicates a value in the range of greater than 150 to 200)”. At Gal4-RORγ-LBD, the 50% effective concentration (EC50) fell in the range of 500 to 5000 nM and the “Gal4-RORγ Assay Max Response” value is recorded as “** (The symbol “**” indicates a value in the range of greater than 90 to 150)”.
`Cc1cc(F)cc(-c2ccc3c(c2)N(S(=O)(=O)c2cccc(C(F)(F)F)c2)C[C@H](CCC(=O)O)O3)c1` [Compound 2BN, (S)-3-(6-(3-fluoro-5-methyl-phenyl)-4-((3-(trifluoromethyl)-phenyl)sulfonyl)-3,4-dihydro-2H-benzo[b][1,4]oxazin-2-yl)propanoic acid]: at RORγ-LBD, the concentration giving a half-maximal response (EC50) is below 500 nM and the “TR-FRET Assay Max Response” value is listed as “*** (The symbol “***” indicates a value in the range of greater than 150 to 200)”. Moreover, on Gal4-RORγ-LBD, the concentration for a half-maximal effect (EC50) is below 500 nM and the “Gal4-RORγ Assay Max Response” value is reported as “** (The symbol “**” indicates a value in the range of greater than 90 to 150)”.

What is called EC50 is the concentration needed to bring the measured effect to its halfway point.
